# How the values were obtained:
# [1] = test system: HCT-116; experiment: Cytotoxicity against human HCT116 cells; type: functional, cell-based
# [2] = test system: A2780; experiment: Cytotoxicity against human A2780 cells; type: functional, cell-based
# [3] = biological target: T1, Nicotinamide phosphoribosyltransferase (Homo sapiens, UniProt P43490); experiment: Inhibition of NAMPT (unknown origin)
# [4] = test system: A2780; experiment: Cytotoxicity against human A2780 cells after 72 hrs by SRB assay; type: functional, cell-based; conditions: A2780, 72 h
# [5] = biological target: T1, Nicotinamide phosphoribosyltransferase; experiment: Inhibition of recombinant his-tagged NAMPT (unknown origin) expressed in Escherichia coli after 30 mins
# [6] = Cytotoxicity against human U87 cells by MTT assay; type: functional, cell-based, U-87MG ATCC; conditions: U-87 MG
# [7] = biological target: T1, Nicotinamide phosphoribosyltransferase; experiment: Inhibition of NAMPT in human U87 cells; type: cell-based, U-87MG ATCC
# [8] = test system: A2780; experiment: Cytotoxicity against human A2780 cells after 72 hrs by WST-1 assay; type: functional, cell-based; conditions: A2780, 72 h
# [9] = Cytotoxicity against human NYH cells after 3 weeks by clonogenic survival assay; type: functional; conditions: 504 h, read-out: LD50 (the source's name)
# [10] = test system: WIL2; experiment: Cytotoxicity against human W1L2 cells; type: functional, cell-based
# [11] = biological target: T1, Nicotinamide phosphoribosyltransferase; experiment: Binding affinity to NAMPT (unknown origin)
# [12] = Cytotoxicity against human SH-SY5Y cells […] after 48 hrs by MTT assay; type: functional, cell-based
# [13] = Half life in human; type: ADME, organism-based; conditions: in vivo
# [14] = test system: K562; experiment: Cytotoxicity against human K562 cells after 96 hrs by MTT assay; type: functional, cell-based; conditions: K562, 96 h
# [15] = Solubility of the compound in water; type: physicochemical
# T1 sequence (P43490 whole entry): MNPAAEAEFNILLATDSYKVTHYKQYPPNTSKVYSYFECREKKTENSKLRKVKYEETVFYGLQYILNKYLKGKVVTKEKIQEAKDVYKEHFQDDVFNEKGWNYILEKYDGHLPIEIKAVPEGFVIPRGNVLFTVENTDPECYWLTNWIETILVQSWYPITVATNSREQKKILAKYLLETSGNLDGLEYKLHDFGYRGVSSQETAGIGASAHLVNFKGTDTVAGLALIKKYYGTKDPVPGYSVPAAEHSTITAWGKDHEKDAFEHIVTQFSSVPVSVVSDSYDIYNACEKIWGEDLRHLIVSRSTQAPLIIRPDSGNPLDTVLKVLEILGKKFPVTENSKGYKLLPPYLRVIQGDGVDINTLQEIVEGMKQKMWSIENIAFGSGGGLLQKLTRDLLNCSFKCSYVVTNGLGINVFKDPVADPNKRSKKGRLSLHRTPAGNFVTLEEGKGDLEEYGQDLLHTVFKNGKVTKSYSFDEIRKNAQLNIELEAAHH
smiles,measurement,setting,value
C#CCN(Cc1cc2c(=O)n(C)c(CN3CCN(CCCN)CC3)nc2cc1Cl)c1ccc(C(=O)NCc2cccnc2)cc1,EC50,[1],18 nM
CC(C)=CCN(Cc1cc2c(=O)n(C)nnc2cc1Cl)c1ccc(C(=O)NCc2cccnc2)cc1,EC50,[1],3 nM
O=C(NCc1cccnc1)Nc1ccc(S(=O)(=O)c2ccccc2OC(F)(F)F)cc1,EC50,[2],7 nM
same,IC50,[3],1.2 nM
N#C/N=C(\NCc1ccc(S(=O)(=O)c2cccc(Cl)c2)cc1)Nc1ccncc1,EC50,[4],4.1 nM
O=C(/C=C/c1cccnc1)Nc1ccc(S(=O)(=O)c2ccccc2)cc1,EC50,[4],243 nM
same,IC50,[5],3 nM
O=C1c2cc(S(=O)(=O)O)ccc2-c2ccc(S(=O)(=O)O)cc21,EC50,[6],335000 nM
Nc1c(-c2ccc3ccccc3n2)c2ccc([N+](=O)[O-])cc2c(=O)n1Cc1ccccc1,IC50,[7],< 5000 nM
same,EC50,[6],325000 nM
O=c1c(NCCCCCCS(=O)(=O)N(OCCN2CCOCC2)C2CCCCC2)c(Nc2ccncc2)c1=O,IC50,[8],0.03 nM
O=C(/C=C/c1cccnc1)NCCCCCCS(=O)(=O)N(CCN1CCOCC1)OCC1CCCCC1,IC50,[2],0.16 nM
N#C/N=C(\NCCCCCCC(=O)N(Cc1ccccc1)OC1CCCCC1)Nc1ccncc1,CC50,[9],0.02 nM
C#CCN(Cc1cc2c(=O)n(C)c(CN3CCN(C)CC3)nc2cc1Br)c1ccc(C(=O)NCc2cccnc2)cc1,EC50,[10],0.49 nM
same,IC50,[3],0.23 nM
O=C(/C=C/c1ccc[n+]([C@@H]2O[C@H](CO)[C@@H](O)[C@H]2O)c1)NCCCCC1CCN(C(=O)c2ccccc2)CC1,Kd,[11],45000 nM
Cc1ncsc1C(=O)N1CCC(CCCCNC(=O)c2cc3cnccc3[nH]2)CC1,EC50,[4],1 nM
O=C(NCCCCC1CCN(C(=O)c2ccccc2)CC1)c1cc2ccncc2s1,EC50,[4],1.2 nM
O=C(c1ccccc1)N1CCC(CCCCn2cc(/C=C/c3cccnc3)nn2)CC1,IC50,[12],3000 nM
O=C(NCCCCCCS(=O)(=O)N(OCCN1CCOCC1)C1CCCCC1)NCc1cccnc1,IC50,[2],0.89 nM
N#CN=C(NCCCCCCOc1ccc(Cl)cc1)Nc1ccncc1 [CHS-828],CC50,[9],1.7 nM
same,half-life,[13],3 h
O=C(/C=C/c1cccnc1)NCCCCC1CCN(C(=O)c2ccccc2)CC1 [DAPORINAD],CC50,[9],1.5 nM
same,IC50,[14],7.2 nM
COCCOCCOCCOCCOC(=O)OC[n+]1ccc(N/C(=N/C#N)NCCCCCCOc2ccc(Cl)cc2)cc1.[Cl-] [TEGLARINAD CHLORIDE],solubility,[15],≤ 97 mg/mL
